Results taken from ChEMBL document CHEMBL1817633, “Evaluation of a cell penetrating prenylated peptide lacking an intrinsic fluorophore via in situ click reaction” (Bioorg Med Chem Lett, 2011).
Peptide text beside a SMILES is read from it. * marks the point of attachment. Geranylgeranyl = CC(C)=CCC/C(C)=C/CC/C(C)=C/CC/C(C)=C/C*; X1 = O=C(O)c1cc(C(=O)*)ccc1-c1c2ccc(=O)cc-2oc2cc(O)ccc12; Pent4ynoyl = C#CCCC(=O)*

Legend:
Format in all cases: ADME, cell-based
HeLa [1] = assay: Cellular uptake in human HeLa cells assessed as nuclear localization at 1 uM after 2 hrs by confocal laser scanning microscopy
HeLa [2] = assay: Cellular uptake in human HeLa cells at 1 uM after 2 hrs by confocal laser scanning microscopy
HeLa [3] = assay: Cellular uptake in human HeLa cells at 1 to 5 uM treated for 1 hr followed by washout measured after 1 hr by flow cytometry

| Compound | Drug uptake (HeLa [1]) | Drug uptake (HeLa [2]) | Drug uptake (HeLa [3]) |
| --- | --- | --- | --- |
| C#CCCC(=O)N[C@@H](CCCCNC(C)=O)C(=O)N[C@@H](C)C(=O)N[C@@H](CCCCN)C(=O)N[C@@H](CCCCN)C(=O)N[C@@H](CO)C(=O)N[C@@H](CCCNC(=N)N)C(=O)N[C@@H](CCCNC(=N)N)C(=O)N[C@@H](CSC/C=C(\C)CC/C=C(\C)CC/C=C(\C)CCC=C(C)C)C(N)=O (Pent4ynoyl-K(Ac)AKKSRRC(Geranylgeranyl)-NH2) | Active | Active |  |
| C#CCCC(=O)N[C@@H](CCCCNC(=O)c1ccc(-c2c3ccc(=O)cc-3oc3cc(O)ccc23)c(C(=O)O)c1)C(=O)N[C@@H](C)C(=O)N[C@@H](CCCCN)C(=O)N[C@@H](CCCCN)C(=O)N[C@@H](CO)C(=O)N[C@@H](CCCNC(=N)N)C(=O)N[C@@H](CCCNC(=N)N)C(=O)N[C@@H](CSC/C=C(\C)CC/C=C(\C)CC/C=C(\C)CCC=C(C)C)C(N)=O (Pent4ynoyl-K(X1)AKKSRRC(Geranylgeranyl)-NH2) | Not Active | Active | Active |
